Measurements: patent EP0209237A2, “Vinyl-glycyl-amino-beta-lactam derivatives” (BEECHAM GROUP PLC, priority 1985, dated 1987)
Converted amounts (≈) assume the structure as drawn. Where two headings read alike, the source gives them in different places. Values belong to the compound of their own block, whether it stands above or below them.

What was measured:
[1] = Squirrel monkey plasma levels; type: in vivo; conditions: for concentration at 0.25 h: 15 minutes, read-out: Plasma Levels, Time in Minutes 15; for concentration at 0.5 h: 30 minutes, read-out: Plasma Levels, Time in Minutes 30; for concentration at 1 h: 60 minutes, read-out: Plasma Levels, Time in Minutes 60; for concentration at 2 h: 120 minutes, read-out: Plasma Levels, Time in Minutes 120; for concentration at 4 h: 240 minutes, read-out: Plasma Levels, Time in Minutes 240; for concentration at 6 h: 360 minutes, read-out: Plasma Levels, Time in Minutes 360; for AUC: read-out: Area under the curve
[2] = system: S.pyogenes CN 10; assay: Minimum Inhibitory Concentration (MIC), agar dilution; type: cell-based; conditions: 5% v/v horse blood agar, two-fold dilutions, read after 24 hours; unit assumed
Experimental: (§1) The following Table gives Minimum Inhibitory Concentration (MIC) values for some of the compounds of the invention against S.pyogenes CN 10 and E.coli NCTC 10418. The E. coli was grown in tryptone soya broth and the S. pyogenes was grown in Todd Hewitt broth. The microorganisms were grown for 24hours and lul samples were then inoculated on to agar plates (comprising 5% v/v live horse blood agar) to which had been added the compounds of the invention at a series of two-fold dilutions.

[3] = system: E.coli NCTC 10418; assay: as above; type: cell-based; conditions: 5% v/v horse blood agar, two-fold dilutions, read after 24 hours; unit assumed
Experimental: as §1

[4] = system: S.aureus Smith; assay: MIC against the infecting strain (Table 4); type: cell-based; conditions: Staphylococcus aureus
[5] = system: S.agalactiae 2798; assay: CD50, protection of mice infected with a lethal inoculum; type: in vivo; conditions: for ED50: read-out: Total CD50
From the text: (§2) The following Table gives CD50 values obtained after infecting groups of mice with a lethal inoculum of various bacteria and treating the mice with the compounds quoted. The CD50 value then represents the amount of compound necessary to protect 50% of the animals.

[6] = system: S.aureus Smith; assay: as above; type: in vivo; conditions: for ED50: Staphylococcus aureus, read-out: Total CD50
From the text: as §2

[7] = system: E.coli 96 R-; assay: as above; type: in vivo; conditions: for ED50: Escherichia coli, 96R, read-out: Total CD50
From the text: as §2

[8] = system: E.coli 96 R-; assay: MIC against the infecting strain (Table 4); type: cell-based; conditions: Escherichia coli
[9] = system: S.agalactiae 2798; assay: MIC against the infecting strain (Table 4); type: cell-based; conditions: Streptococcus agalactiae
[10] = Streptococcus agalactiae, 2798, po, S.agalactiae 2798, p.o.

concentration at 0.25 h [1]: 4800 ng/mL
concentration at 0.5 h [1]: 9700 ng/mL
concentration at 1 h [1]: 12600 ng/mL
concentration at 2 h [1]: 6700 ng/mL
concentration at 4 h [1]: 1100 ng/mL
concentration at 6 h [1]: 300 ng/mL
AUC [1]: 26200 ng·h/mL
Compound: CC1(C)S[C@@H]2[C@H](NC(=O)[C@H](N)c3ccc(O)cc3)C(=O)N2[C@H]1C(=O)O [Amoxycillin, reference compound]

concentration at 0.25 h [1]: 4000 ng/mL
concentration at 0.5 h [1]: 14700 ng/mL
concentration at 1 h [1]: 32700 ng/mL
concentration at 2 h [1]: 15700 ng/mL
concentration at 4 h [1]: 2400 ng/mL
concentration at 6 h [1]: 800 ng/mL
AUC [1]: 59700 ng·h/mL
MIC S. pyogenes CN 10 [2]: 0.03 µg/mL (≈ 0.1 µM)
MIC E. coli NCTC 10418 [3]: 8 µg/mL (≈ 26.7 µM)
Compound: C=C[C@@H](N)C(=O)N[C@@H]1C(=O)N2[C@@H]1SC(C)(C)[C@@H]2C(=O)O [Example 1, 6β-(D-2-Aminobut-3-enamido)penicillanic acid]

MIC S. pyogenes CN 10 [2]: < 0.03 µg/mL
MIC E. coli NCTC 10418 [3]: 8 µg/mL (≈ 21.3 µM)
Compound: C=C(c1ccccc1)[C@@H](N)C(=O)N[C@@H]1C(=O)N2[C@@H]1SC(C)(C)[C@@H]2C(=O)O [Example 4 (D-stereoisomer), 6β-(D-2-amino-3-phenylbut-3-enamido)penicillanic acid]

Compound: CC1(C)S[C@@H]2[C@H](NC(=O)[C@H](N)C=C(Cl)Cl)C(=O)N2[C@H]1C(=O)O [Example 5 (D-stereoisomer), 6β-(D-2-amino-4,4-dichlorobut-3-enamido)penicillanic acid]
concentration at 0.25 h [1]: 20700 ng/mL
concentration at 0.5 h [1]: 28800 ng/mL
concentration at 1 h [1]: 24300 ng/mL
concentration at 2 h [1]: 16800 ng/mL
concentration at 4 h [1]: 2400 ng/mL
concentration at 6 h [1]: 1400 ng/mL
AUC [1]: 63000 ng·h/mL
MIC [4]: 0.06 µg/mL (≈ 0.163 µM)
Total CD50 ([5]; S.agalactiae 2798, p.o.): 0.6 mg/kg
ED50 [5, 10]: 0.9 mg/kg
ED50 ([6]; sc): 0.08 mg/kg
Total CD50 ([6]; s.c.): 0.09 mg/kg
ED50 ([7]; po): 40 mg/kg
ED50 ([7]; sc): 22 mg/kg
MIC S. pyogenes CN 10 [2]: < 0.03 µg/mL
MIC E. coli NCTC 10418 [3]: 2 µg/mL (≈ 5.43 µM)
MIC [8]: 2 µg/mL (≈ 5.43 µM)
MIC [9]: 0.06 µg/mL (≈ 0.163 µM)

Compound: C=C(C)[C@@H](N)C(=O)N[C@@H]1C(=O)N2[C@@H]1SC(C)(C)[C@@H]2C(=O)O [Example 6, 6,β-(D-2-Amino-3-methylbut-3-enamido)penicillanic-acid]
concentration at 0.25 h [1]: 8700 ng/mL
concentration at 0.5 h [1]: 16400 ng/mL
concentration at 1 h [1]: 20000 ng/mL
concentration at 2 h [1]: 13000 ng/mL
concentration at 4 h [1]: 2200 ng/mL
concentration at 6 h [1]: 900 ng/mL
AUC [1]: 46500 ng·h/mL
MIC [4]: 0.12 µg/mL (≈ 0.383 µM)
Total CD50 ([5]; S.agalactiae 2798, p.o.): 3.8 mg/kg
Total CD50 ([5]; S.agalactiae 2798, s.c.): 1.1 mg/kg
ED50 [5, 10]: 3.6 mg/kg
ED50 ([5]; Streptococcus agalactiae, 2798, sc, S.agalactiae 2798, s.c.): 1.5 mg/kg
ED50 ([6]; po): 0.08 mg/kg
ED50 ([6]; sc): 0.15 mg/kg
Total CD50 ([6]; p.o.): 0.10 mg/kg
ED50 ([7]; po): 32 mg/kg
Total CD50 ([7]; p.o.): 40 mg/kg
MIC S. pyogenes CN 10 [2]: < 0.03 µg/mL
MIC E. coli NCTC 10418 [3]: 2 µg/mL (≈ 6.38 µM)
MIC [8]: 4 µg/mL (≈ 12.8 µM)
MIC [9]: 0.25 µg/mL (≈ 0.798 µM)

MIC S. pyogenes CN 10 [2]: 0.25 µg/mL (≈ 0.677 µM)
MIC E. coli NCTC 10418 [3]: 32 µg/mL (≈ 86.6 µM)
Compound: C=C(C)[C@@H](N)C(=O)N[C@@H]1C(=O)N2C(C(=O)O)=C(COC(C)=O)CS[C@H]12 [Example 7, 7,β-(D-2-Amino-3-methylbut-3-enamido)cephalosporanic acid]

Compound: C=C(C)[C@@H](N)C(=O)N[C@@H]1C(=O)N2C(C(=O)O)=C(C)CS[C@H]12 [Example 8, 7,β-[D-2-Amino-3-methylbut-3-enamido]-3-desacetoxy cephalosporanic acid]
MIC S. pyogenes CN 10 [2]: 2 µg/mL (≈ 6.42 µM)

MIC S. pyogenes CN 10 [2]: < 0.03 µg/mL
MIC E. coli NCTC 10418 [3]: 2 µg/mL (≈ 6.11 µM)
Compound: C=C(CC)[C@@H](N)C(=O)N[C@@H]1C(=O)N2[C@@H]1SC(C)(C)[C@@H]2C(=O)O [Example 9 (D-stereoisomer), 6,β-(D-2-amino-3-ethylbut-3-enamido)penicillanic acid]

MIC S. pyogenes CN 10 [2]: < 0.06 µg/mL
MIC E. coli NCTC 10418 [3]: 2 µg/mL (≈ 6.11 µM)
Compound: C/C=C(\C)[C@@H](N)C(=O)N[C@@H]1C(=O)N2[C@@H]1SC(C)(C)[C@@H]2C(=O)O [Example 10 (D-stereoisomer), 6β-(D-2-amino-3-methylpent-3(E)-enamido)penicillanic acid]

MIC S. pyogenes CN 10 [2]: < 0.06 µg/mL
MIC E. coli NCTC 10418 [3]: 8 µg/mL (≈ 25.5 µM)
Compound: C/C=C/[C@@H](N)C(=O)N[C@@H]1C(=O)N2[C@@H]1SC(C)(C)[C@@H]2C(=O)O [Example 11 (D-stereoisomer), 6β-(D-2-Amino-pent-3(E)-enamido)penicillanic acid]

MIC S. pyogenes CN 10 [2]: 0.06 µg/mL (≈ 0.177 µM)
MIC E. coli NCTC 10418 [3]: 2 µg/mL (≈ 5.89 µM)
Compound: C=C/C=C(\C)[C@@H](N)C(=O)N[C@@H]1C(=O)N2[C@@H]1SC(C)(C)[C@@H]2C(=O)O [Example 12 (D-stereoisomer), 6β-(D-2-amino-3-methylhex-3(E), 5-dienamido)penicillanic acid]

MIC S. pyogenes CN 10 [2]: < 0.06 µg/mL
MIC E. coli NCTC 10418 [3]: 4 µg/mL (≈ 12.2 µM)
Compound: CC/C=C/[C@@H](N)C(=O)N[C@@H]1C(=O)N2[C@@H]1SC(C)(C)[C@@H]2C(=O)O [Example 13 (D-stereoisomer), 6p-(D-2-aminohex-3(E)-enamido)penicillanic acid]

MIC S. pyogenes CN 10 [2]: < 0.06 µg/mL
MIC E. coli NCTC 10418 [3]: 16 µg/mL (≈ 41.9 µM)
Compound: CC1(C)S[C@@H]2[C@H](NC(=O)[C@H](N)/C=C/C3CCCCC3)C(=O)N2[C@H]1C(=O)O [Example 14 (D-stereoisomer), 6β-(D-2-amino-4-cyclohexylbut-3(E)-enamido)penicillanic acid]

MIC S. pyogenes CN 10 [2]: < 0.06 µg/mL
MIC E. coli NCTC 10418 [3]: 16 µg/mL (≈ 42.6 µM)
Compound: CC1(C)S[C@@H]2[C@H](NC(=O)[C@H](N)/C=C/c3ccccc3)C(=O)N2[C@H]1C(=O)O [Example 15 (D-stereoisomer), 6p-(D-2-amino-4-phenylbut-3(E)enamido)penicillanic acid]

MIC S. pyogenes CN 10 [2]: < 0.06 µg/mL
MIC E. coli NCTC 10418 [3]: 16 µg/mL (≈ 39 µM)
Compound: CC1(C)S[C@@H]2[C@H](NC(=O)C(N)/C=C/c3ccc(Cl)cc3)C(=O)N2[C@H]1C(=O)O (stereo partly drawn) [Example 16, 6β-[D,L-2--Amino-4-(4-chlorophenyl)but-3(E)-enamido]penicillanic acid]

MIC S. pyogenes CN 10 [2]: < 0.06 µg/mL
MIC E. coli NCTC 10418 [3]: 4 µg/mL (≈ 10.9 µM)
Compound: C=C([C@@H](N)C(=O)N[C@@H]1C(=O)N2[C@@H]1SC(C)(C)[C@@H]2C(=O)O)C(F)(F)F [Example 17 (D-stereoisomer), 6,P-(D-2-amino-3-trifluoromethylbut-3-enamido)penicillanic acid]

MIC S. pyogenes CN 10 [2]: 0.06 µg/mL (≈ 0.157 µM)
MIC E. coli NCTC 10418 [3]: 16 µg/mL (≈ 41.9 µM)
Compound: C=C(c1cccs1)[C@@H](N)C(=O)N[C@@H]1C(=O)N2[C@@H]1SC(C)(C)[C@@H]2C(=O)O [Example 18 (D-stereoisomer), 6β-(D-2-amino-3-thien-2-yl-but-3-enamido)penicillanic acid]

MIC S. pyogenes CN 10 [2]: < 0.03 µg/mL
MIC E. coli NCTC 10418 [3]: 16 µg/mL (≈ 38.5 µM)
Compound: CC1(C)S[C@@H]2[C@H](NC(=O)C(N)/C(=C/Cl)c3cccs3)C(=O)N2[C@H]1C(=O)O (stereo partly drawn) [Example 19, 6β-(D,L-2-Amino-4-chloro-3-thien-2-ylbut-3(Z)-enamido)penicillanic acid]

MIC S. pyogenes CN 10 [2]: 0.06 µg/mL (≈ 0.144 µM)
MIC E. coli NCTC 10418 [3]: 32 µg/mL (≈ 76.9 µM)
Compound: CC1(C)S[C@@H]2[C@H](NC(=O)C(N)/C(=C\Cl)c3cccs3)C(=O)N2[C@H]1C(=O)O (stereo partly drawn) [Example 20, 6B-(D,L-2-Amino-4-chloro-3-thien-2-ylbut-3(E)-enamido)penicillanic acid]

MIC S. pyogenes CN 10 [2]: 0.06 µg/mL (≈ 0.173 µM)
MIC E. coli NCTC 10418 [3]: 4 µg/mL (≈ 11.5 µM)
Compound: C/C(=C\Cl)[C@@H](N)C(=O)N[C@@H]1C(=O)N2[C@@H]1SC(C)(C)[C@@H]2C(=O)O [Example 21 (D-stereoisomer), 6β-(D-2-Amino-4-chloro-3-methylbut-3(E)-enamido)-penicillanic acid]

MIC S. pyogenes CN 10 [2]: 0.12 µg/mL (≈ 0.345 µM)
MIC E. coli NCTC 10418 [3]: 8 µg/mL (≈ 23 µM)
Compound: C/C(=C/Cl)C(N)C(=O)N[C@@H]1C(=O)N2[C@@H]1SC(C)(C)[C@@H]2C(=O)O (stereo partly drawn) [Example 22, 6β-(D,L-2-Amino-4-chloro-3-methylbut-3(Z)-enamido) penicillanic acid]

Compound: CC(=O)OC/C=C/[C@@H](N)C(=O)N[C@@H]1C(=O)N2[C@@H]1SC(C)(C)[C@@H]2C(=O)O [Example 23, 6β-[5-Acetoxy-D-2-aminopent-3(E)-enamido] penicillanic acid]
MIC S. pyogenes CN 10 [2]: 0.12 µg/mL (≈ 0.323 µM)
MIC E. coli NCTC 10418 [3]: 32 µg/mL (≈ 86.2 µM)
